# According to patent US5101072A, “Sulfonylhydrazines and their use as antineoplastic agents and as antitrypanosomal agents” (Yale University, priority 1989, dated 1992):
# Experiments:
# [1] = test system: T. rhodesiense (Y Tat 1.1); assay: Survival time of CD-1 mice infected with T. rhodesiense (trypanocidal activity); type: in vivo, T. rhodesiense (Y Tat 1.1); CD-1 mice; conditions: for Mean Extension of Life (Table III): administered in 0.05 ml of DMSO, dose not given
# Experimental: The trypanocidal properties of several methylating agents including MeSO2 N(Me)N(SO2 Me)2 and MeSO2 N(Me)N(Me)SO2 Me were determined by measuring their effects on the survival time of CD-1 mice infected with T. rhodesiense (Y Tat 1.1), a pleimorphic strain that produces a non-relapsing disease in mice. The level of parasites in the bloodstream and body fluids increases by approximately 10-fold per day and the animals die when the parasite burden exceeds 1 to 2×10^9 cells/ml. Infection with a single viable parasite will kill a mouse in approximately 9 to 10 days.
# Mice were infected ip with approximately 10^6 trypanosomes/mouse in phosphate buffered saline containing glucose. This level of parasites produces death in 4 days post-infection. These mice were treated (ip) with a single dose of drug dissolved in the appropriate vehicle 3 days after infection, when the parasitemia was 1 to 3×10^8 cells/ml of blood and the mice, if untreated, would survive for only 24 additional hours. The number of days the mice survived beyond that of the untreated controls was used as a measure of trypanocidal activity. The level of parasitemia in treated mice was measured at regular intervals to distinguish between parasite-related and drug toxicity-related deaths. No toxic deaths were observed. Mice that survived for 30 days without detectable parasitemias were considered cured. The effects of a single dose of various methylating agents on the survival time of trypanosome-bearing mice are summarized in Table II.
# ^a Drug that was administered was dissolved in 0.5 ml of phosphate
# buffered saline containing glucose.
# ^b Drug that was administered was dissolved in 0.05 ml of DMSO.
# [2] = Methanol generation in vitro (spontaneous breakdown to generate reactive methyl groups); type: physicochemical; conditions: relative; PhSO2 N(Me)NHSO2 Ph = 1.0
# Experimental: The reaction of 1,2-bis(sulfonyl)-1-methylhydrazine with water at pH 7.4-7.6 at 37° C. can be followed by proton release and/or methanol generation. Methanol generation can be assayed using alcohol oxidase and measuring the resultant O2 consumption using a Gilson oxygraph. This assay can be calibrated using methanol standards. The reaction of 1,2-bis(sulfonyl)-1-methylhydrazine with water is relatively fast [a 50 μM solution of 1,2-bis(methylsulfonyl)-1-methylhydrazine decomposes at an initial rate of 12-15% per minute in phosphate buffered saline (pH 7.6) at 37° C.] compared to the hydroylsis of 1,2,2-tris(methylsulfonyl)-1-methylhydrazine. RSO2 N=NMe may also decompose by a free radical mechanism to a smaller extent and methylate by the generation of methyl radicals.
# Methanol was produced by these agents in aqueous solutions free from strong competing nucleophiles. Formation of this alcohol was used as a measure of the rate of spontaneous breakdown of these compounds to generate reactive methyl groups. […] These findings provide strong evidence that methylation is essential for the observed biological activity of these compounds.
# [3] = test system: L1210 leukemia; assay: Survival time of mice bearing the L1210 leukemia; type: in vivo; conditions: for 60-day cures, % / % T/C (average survival time of treated/control animals × 100): L1210, at optimum effective daily dose, once daily × 6 days
# Experimental: The tumor-inhibitory properties of several compounds, e.g., 1,2-bis(methylsulfonyl)-1-methylhydrazine, 1-methyl-1,2,2-tris(methylsulfonyl)hydrazine, 1,2-bis(methylsulfonyl)-1,2-dimethylhydrazine and 1-(2-chloroethyl)-1,2,2-tris(methylsulfonyl)hydrazine were determined by measuring the effects of these agents on the survival time of mice bearing the L1210 leukemia as described by K. Shyam, L. A. Cosby, and A. C. Sartorelli, J. Med. Chem., 28, 525-527 (1985).
# ^a Administered once daily for 6 consecutive days, beginning 24 hours
# after tumor transplantation with 5-10 animals being used per group.
# ^b Average change in body weight from onset to termination of therapy
# (§1) ^c % T/C = average survival time of treated/control animals ×
# [4] = Lethality in normal mice; type: in vivo
# Experimental: A single intraperitoneal dose of 1.2 g/kg or six daily intraperitoneal doses of 200 mg/kg of MeSO2 N(CH2 CH2 Cl)N(SO2 Me)2 produced no lethality in normal mice. Thus, the relatively great efficacy of this compound against the L1210 and P-388 leukemias and its relative lack of toxicity makes it an agent of significant promise.
# [5] = test system: P388 leukemia; assay: % T/C and 60-day cures vs. P388 leukemia; type: in vivo, mice; conditions: 60 mg/kg/day
# Experimental: as §1
# ^d % T/C vs. P388 leukemia = 218 (80% 60day cures) at 60 mg/kg/day
# [6] = single ip dose 0.2 mmol/kg in 0.05 ml of DMSO
# [7] = single ip dose 0.2 mmol/kg in 0.5 ml phosphate buffered saline containing glucose
# [8] = mice bearing L1210, at optimum effective daily dose
smiles,measurement,setting,value
COS(C)(=O)=O [MeSO2 OMe],Mean Extension of Life,[1]; [6],1.0 days
CCNNCC [EtNHNHEt],Mean Extension of Life,[1]; [7],0 days
"CNN [MeNHNH2, methylhydrazine]",Mean Extension of Life,[1]; single ip dose 0.5 mmol/kg in 0.5 ml phosphate buffered saline containing glucose,1 days
O=S(=O)(NNS(=O)(=O)c1ccccc1)c1ccccc1 [PhSO2 NHNHSO2 Ph],Mean Extension of Life (Table III),[1],0 days
same,Relative Methanol Generation in vitro,[2],0
COS(=O)(=O)OC [Me2 SO4],Mean Extension of Life,[1]; [6],3.0 days
"CS(=O)(=O)OCCN(N(S(C)(=O)=O)S(C)(=O)=O)S(C)(=O)=O [MeSO2 N(CH2 CH2 OSO2 Me)N(SO2 Me)2, 1-(2-methylsulfonyloxy)ethyl-1,2,2-tris(methylsulfonyl)hydrazine]","60-day cures, %",[3],0%
same,% T/C (average survival time of treated/control animals × 100),[3],198%
same,"AvΔ Wt, % (average change in body weight from onset to termination of therapy)","[3]; mouse, in vivo",-4.2%
"CS(=O)(=O)N(CCCl)N(S(C)(=O)=O)S(C)(=O)=O [MeSO2 N(CH2 CH2 Cl)N(SO2 Me)2, 1-(2-chloroethyl)-1,2,2-tris(methylsulfonyl)hydrazine]",Lethality in normal mice,[4]; single intraperitoneal dose of 1.2 g/kg,no lethality
same,Lethality in normal mice,[4]; six daily intraperitoneal doses of 200 mg/kg,no lethality
same,"60-day ""cures"" of the L1210 leukemia",[3]; 40 and 60 mg/kg per day×6,"60-day ""cures"" of the L1210 leukemia"
same,"60-day cures, %",[3],100%
same,"AvΔ Wt, % (average change in body weight from onset to termination of therapy)",[3]; [8],-7.2%
same,Activity against the L1210 leukemia (in words),"[3]; mouse, in vivo",exceedingly active
same,60-day cures vs. P388 leukemia,[5],80%
same,% T/C vs. P388 leukemia,[5],218%
CN(NS(=O)(=O)c1ccccc1)S(=O)(=O)c1ccccc1 [PhSO2 N(Me)NHSO2 Ph],Mean Extension of Life (Table III),[1],5 days
same,Mean Extension of Life,[1]; [6],5.0 days
same,Relative Methanol Generation in vitro,[2],1.0
"CS(=O)(=O)N(CCBr)N(S(C)(=O)=O)S(C)(=O)=O [MeSO2 N(CH2 CH2 Br)N(SO2 Me)2, 1-(2-bromoethyl)-1,2,2-tris(methylsulfonyl)hydrazine]","60-day cures, %",[3],0%
same,% T/C (average survival time of treated/control animals × 100),[3],213%
same,"AvΔ Wt, % (average change in body weight from onset to termination of therapy)",[3]; [8],-2.0%
"CN(C)N=Nc1[nH]cnc1C(N)=O [DTIC, 5-(3,3-dimethyl-1-triazenyl)-1H-imidazole-4-carboxamide]",Mean Extension of Life,[1]; [7],6.0 days
"CNNCc1ccc(C(=O)NC(C)C)cc1 [Procarbazine, procarbazine]",Mean Extension of Life,[1]; [7],5.0 days
CN(N=O)C(N)=O [N-Methyl-N-nitrosourea],Mean Extension of Life,[1]; [6],8.0 days
"CS(=O)(=O)N(N(CCCl)S(=O)(=O)c1ccccc1)S(C)(=O)=O [C6 H5 SO2 N(CH2 CH2 Cl)N(SO2 Me)2, 2,2-bis(methylsulfonyl)-1-(2-chloroethyl)-1-phenylsulfonylhydrazine]","60-day cures, %",[3],40%
same,% T/C (average survival time of treated/control animals × 100),[3],187%
same,"AvΔ Wt, % (average change in body weight from onset to termination of therapy)",[3]; [8],+0.5%
